Results as given in ChEMBL document CHEMBL1201862, “PubChem BioAssay data set” (2004).
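All cell lines were grown in 96-well plates and treated with compound for 48 hours. Here, GI50 denotes the concentration required for 50% inhibition of growth.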 Calls of active or inactive are those of the source. Cut-off read from the data, not from the text of the source: active = GI50 up to about 1.1 µM and inactive = higher.

Experiments:
Assay in all cases: inhibition of tumour cell growth, NCI panel, 48 h
UACC-257 = tested on: UACC-257
HT-29 = tested on: HT-29
SK-MEL-28 = tested on: SK-MEL-28
IGROV-1 = tested on: IGROV-1
SNB-75 = tested on: SNB-75
NCI/ADR-RES = tested on: NCI/ADR-RES
MDA-MB-231 = tested on: MDA-MB-231
A498 = tested on: A498
CCRF-CEM = tested on: CCRF-CEM
M14 = tested on: M14
NCI-H460 = tested on: NCI-H460
786-0 = tested on: 786-0
SF-295 = tested on: SF-295
RXF 393 = tested on: RXF 393
MCF7 = tested on: MCF7
Malme-3M = tested on: Malme-3M
HOP-92 = tested on: HOP-92
HL-60 = tested on: HL-60
Hs-578T = tested on: Hs-578T

Measured: GI50

C=C(C)/C=C/C(O)[C@](C)(O)[C@H]1[C@H](O)C[C@@]2(C)[C@@H]3CCc4c(cc(OC5OC(CO)C(O)C(O)C5O)c(O)c4C)C3(C)C(=O)C[C@]12C (stereo partly specified)
inactive: UACC-257 > 100 µM | HT-29 > 100 µM | SK-MEL-28 > 100 µM | IGROV-1 > 100 µM | SNB-75 > 100 µM | NCI/ADR-RES > 100 µM | MDA-MB-231 > 100 µM | A498 > 100 µM | CCRF-CEM > 100 µM | M14 > 100 µM | NCI-H460 > 100 µM | 786-0 > 100 µM | SF-295 > 100 µM | RXF 393 > 100 µM | MCF7 > 100 µM | Malme-3M > 100 µM | HOP-92 > 100 µM

CC1(C)Cc2c(cnn2-c2ccc(C(F)(F)F)cc2)-c2[nH]c(-c3ccc(O)cc3)nc21
inactive: UACC-257 16.4 µM | HT-29 3.99 µM | SK-MEL-28 13.7 µM | IGROV-1 19.4 µM | SNB-75 8.81 µM | NCI/ADR-RES 19.5 µM | MDA-MB-231 22.3 µM | A498 20.4 µM | CCRF-CEM 2.18 µM | M14 14.9 µM | NCI-H460 14.4 µM | 786-0 3.32 µM | SF-295 16 µM | RXF 393 3.46 µM | HL-60 4.72 µM | MCF7 14.2 µM | Malme-3M 14.6 µM | HOP-92 17.9 µM

COC(=O)C(CC12CC3CC(CC(C3)C1)C2)NC(=O)C(N)CC(=O)O (stereo unspecified)
inactive: UACC-257 > 100 µM | HT-29 > 100 µM | SK-MEL-28 > 100 µM | IGROV-1 > 100 µM | SNB-75 > 100 µM | NCI/ADR-RES > 100 µM | CCRF-CEM > 100 µM | NCI-H460 > 100 µM | 786-0 > 100 µM | SF-295 > 100 µM | RXF 393 > 100 µM | Hs-578T > 100 µM | HOP-92 > 100 µM

CC(=O)Oc1cc(C(F)(F)F)ccc1C(=O)OC1(C)OC(=O)c2ccc(C(F)(F)F)cc2O1 (stereo unspecified)
inactive: UACC-257 > 100 µM | HT-29 > 100 µM | SK-MEL-28 > 100 µM | IGROV-1 > 100 µM | SNB-75 9.86 µM | NCI/ADR-RES > 100 µM | MDA-MB-231 > 100 µM | A498 > 100 µM | CCRF-CEM > 100 µM | M14 > 100 µM | NCI-H460 > 100 µM | 786-0 > 100 µM | SF-295 > 100 µM | RXF 393 > 100 µM | HL-60 > 100 µM | MCF7 > 100 µM | Malme-3M > 100 µM | HOP-92 > 100 µM
